#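 Briefly, cells in 96-well plates were exposed to five compound concentrations for 48 h, and endpoints were estimated by linear interpolation. GI50 marks 50% less growth.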 Activity calls are given as the source filed them. Cut-off read from the data, not from the text of the source: active = GI50 up to about 1.1 µM and inactive = higher. Where a SMILES comes first, the peptide text is derived from it. The star is where a group is joined. Cbz = O=C(OCc1ccccc1)*; NHNH2 = NN*
# What was measured:
# Assay in all cases: NCI-60 cell line screen, 48 h
# [1] = tested on: BT-549
# [2] = tested on: RXF 631
# [3] = tested on: KM-20L2
# [4] = tested on: DMS-114
# [5] = tested on: DMS-273
# [6] = tested on: XF498
# [7] = tested on: SNB-78
# [8] = tested on: HOP-18
# [9] = tested on: DLD-1
Structure (SMILES),GI50 [1],GI50 [4],GI50 [5],GI50 [7],other results
CC1CN=C(Nc2ccc(F)c(Cl)c2)S1 (stereo not given),> 100 µM (inactive),–,–,–,–
NS(=O)(=O)c1cc(C(=O)O)c(Cl)c([N+](=O)[O-])c1Cl,> 100 µM (inactive),–,–,–,–
CCOC(=O)C1=C(C)N(NC(=O)c2ccccc2)C2(O)CCCC12C(=O)OCC (stereo not given),–,> 100 µM (inactive),> 100 µM (inactive),–,GI50 [2]: > 100 µM (inactive); GI50 [3]: > 100 µM (inactive); GI50 [6]: 55 µM (inactive)
COc1cc(/C=C2\N=C(c3ccccc3)N(c3ccc(S(=O)(=O)Nc4nccs4)cc3)C2=O)ccc1O,73.6 µM (inactive),–,–,–,–
BrC1=CCC23CC=C(Br)[C@H]4CC2(COC3)C[C@@H]1O4 (stereo not given in full),–,28.4 µM (inactive),36.7 µM (inactive),35.2 µM (inactive),GI50 [3]: 59.3 µM (inactive); GI50 [6]: 76.6 µM (inactive)
C/C(CC(=O)Nc1ccc(C)c(C)c1)=N\N(c1ccccc1)c1ccccc1,–,18.3 µM (inactive),17.6 µM (inactive),> 100 µM (inactive),GI50 [3]: 13.3 µM (inactive); GI50 [6]: > 100 µM (inactive); GI50 [8]: > 100 µM (inactive); GI50 [9]: 55.7 µM (inactive)
CCCCNC(=O)Nc1c(C(N)=O)c2n(c1C(=O)OCC)CCCCC2,> 100 µM (inactive),–,–,–,–
O=C(Nc1ccccc1)N(C1=NCC(CI)S1)c1ccc(F)cc1F (stereo not given),26.5 µM (inactive),–,–,–,–
Cc1nn(-c2ccccc2)c(C)c1/C=N/NC(=O)c1sc(=S)n(-c2ccccc2)c1N,9.71 µM (inactive),–,–,–,–
O=C1c2ccccc2-c2nc(-c3ccccc3)cc3c2c1nc1ccccc13,17.7 µM (inactive),–,–,–,–
CC(=O)O[C@H]1[C@@H](N2CCOCC2)C[C@H]2[C@@H]3CC=C4C[C@@H](N5CCCC5)CC[C@]4(C)[C@H]3CC[C@@]21C,> 100 µM (inactive),–,–,–,–
CC(C)C(=O)OCC1OC(n2c(Br)nc3c(=O)[nH]c(N)nc32)C(OC(=O)C(C)C)C1OC(=O)C(C)C (stereo not given),35.5 µM (inactive),–,–,–,–
COC(=O)[C@]12CC3C=CC1N(C3)C(CBr)c1c2n(S(=O)(=O)c2ccccc2)c2ccccc12 (stereo not given in full),> 100 µM (inactive),–,–,–,–
CCOC(=O)c1c(-c2ccc(Br)cc2)ccn1C,> 10 µM (inactive),–,–,–,–
CC(=O)OC1COC(n2c(=S)n(-c3ccccc3)c(=O)c3cc(Br)ccc32)C(OC(C)=O)C1OC(C)=O (stereo not given),–,51.6 µM (inactive),45.8 µM (inactive),29 µM (inactive),GI50 [3]: > 100 µM (inactive); GI50 [6]: 19.3 µM (inactive); GI50 [8]: > 100 µM (inactive)
Cn1c2c(c3ccccc31)CC(=O)N1CCCC(C1)CC21OCCO1 (stereo not given),> 100 µM (inactive),–,–,–,–
Cc1cc(S(=O)(=O)NC2=Nc3ccc(Cl)cc3C(c3ccccc3)N2)c(S)cc1Cl (stereo not given),> 100 µM (inactive),–,–,–,–
CCOC1=NC(C(F)(F)F)(C(F)(F)F)N=C(/N=C(/N)N(C)C(C(C)C)P(=O)(OC(C)C)OC(C)C)O1 (stereo not given),40.6 µM (inactive),–,–,–,–
CCOC(=O)NN1C(=O)C(=P(c2ccccc2)(c2ccccc2)c2ccccc2)C(C(=O)OC)=C1C,–,> 100 µM (inactive),> 100 µM (inactive),> 100 µM (inactive),GI50 [3]: > 100 µM (inactive); GI50 [6]: > 100 µM (inactive); GI50 [8]: > 100 µM (inactive); GI50 [9]: > 100 µM (inactive)
Clc1ccc(-c2nn3c(-c4ccncc4)nnc3s2)cc1,> 100 µM (inactive),–,–,–,–
COc1ccc(/C=N/C23CC4CC(CC(C4)C2)C3)cc1,–,> 100 µM (inactive),> 10 µM (inactive),> 100 µM (inactive),GI50 [3]: > 100 µM (inactive)

Structure (SMILES),GI50 [1],GI50 [4],GI50 [5],GI50 [7],other results
CN(C)C(=O)OC1=CC2CCC(C1)N2C (stereo not given),> 100 µM (inactive),–,–,–,–
COC(=O)C[C@H](COCc1ccccc1)NC(=O)C[C@H](COCc1ccccc1)NC(=O)OC(C)(C)C,20.7 µM (inactive),–,–,–,–
Cn1cc(-c2ccc3c4ccccc4n(C)c3c2)c2ccccc21,–,> 100 µM (inactive),–,> 100 µM (inactive),GI50 [3]: > 100 µM (inactive); GI50 [8]: > 100 µM (inactive)
CC1=NN(c2nc(N)nc(CSCc3nc(N)nc(N(C)C)n3)n2)C(C)(C)C1,> 100 µM (inactive),–,–,–,–
O=C1OC2(C(F)(F)F)Oc3ccccc3CN2C12CCCCC2 (stereo not given),28.4 µM (inactive),–,–,–,–
CCCCC#COS(=O)(=O)c1ccc(C)cc1,–,44.1 µM (inactive),–,> 100 µM (inactive),GI50 [3]: 75.9 µM (inactive); GI50 [9]: 57.9 µM (inactive)
COC(OC)c1cccc2c1C(=O)CCC1(O)c3ccccc3C1C2 (stereo not given),–,39.1 µM (inactive),> 100 µM (inactive),> 100 µM (inactive),GI50 [6]: > 100 µM (inactive); GI50 [8]: 91.6 µM (inactive); GI50 [9]: > 100 µM (inactive)
CCCCCCCCCCOC(=O)c1cc[n+](C)cc1,–,18 µM (inactive),17.3 µM (inactive),17.9 µM (inactive),GI50 [6]: 17.5 µM (inactive); GI50 [8]: 42.7 µM (inactive); GI50 [9]: 18.5 µM (inactive)
COC(=O)c1c(C)[nH]c2c1cc(O)c1nc(C)c(C)nc12,> 100 µM (inactive),–,–,–,–
CCCCCC[C@H]1C(=O)O[C@H](C)[C@H](NC(=O)c2cccc(NC=O)c2OC)C(=O)O[C@@H](C)[C@@H]1OC(=O)C(C)CC.CCCCCC[C@H]1C(=O)O[C@H](C)[C@H](NC(=O)c2cccc(NC=O)c2OC)C(=O)O[C@@H](C)[C@@H]1OC(=O)CC(C)C (stereo not given in full),27 µM (inactive),–,–,–,–
OCC1OC(n2nc(-c3ccccc3)nc2-c2cnccn2)C(O)C(O)C1O (stereo not given),> 100 µM (inactive),–,–,–,–
CC(C)(C)OC(=O)NCC(=O)N(CCc1ccc(Cl)c(Cl)c1)CCN1CCCC1,20 µM (inactive),–,–,–,–
O=C(c1ccco1)C1CC(c2ccc3ccccc3c2O)=NN1 (stereo not given),> 100 µM (inactive),–,–,–,–
CSc1nc(-c2ccc(C)cc2)c(C#N)c(=O)[nH]1,> 100 µM (inactive),–,–,–,–
CC1(O)C(C)(O)C(C)(O)C1(C)O (stereo not given),–,> 100 µM (inactive),> 100 µM (inactive),> 100 µM (inactive),GI50 [3]: > 100 µM (inactive); GI50 [6]: > 100 µM (inactive); GI50 [8]: > 100 µM (inactive); GI50 [9]: > 100 µM (inactive)
O=C1NC(=O)C(C(CC(=O)c2ccc(Cl)cc2)c2ccc(Cl)cc2)C(=O)N1 (stereo not given),> 100 µM (inactive),–,–,–,–
O=C1NN=C2C=C(c3ccc(Cl)cc3)CC(c3cccc(Cl)c3)C12 (stereo not given),58.2 µM (inactive),–,–,–,–
CCOC(O)(NC(=O)C(C(F)(F)F)C(F)(F)F)C(F)(F)F (stereo not given),> 100 µM (inactive),–,–,–,–
O=c1c2cccnc2ncn1CCN1CCCC1,–,> 100 µM (inactive),> 100 µM (inactive),> 100 µM (inactive),GI50 [3]: > 100 µM (inactive); GI50 [6]: > 100 µM (inactive); GI50 [9]: > 100 µM (inactive)
C=C1C(=O)OC2/C=C(/C)C3(O)OC(C)(CC(OC(=O)C(C)C)C12)CC3OC(C)=O (stereo not given),5.79 µM (inactive),–,–,–,–
O=[N+]([O-])c1ccc(/C(=C\c2ccccc2)Cn2ccnc2)cc1,25.6 µM (inactive),–,–,–,–

Structure (SMILES),GI50 [1],GI50 [4],GI50 [5],GI50 [7],other results
CCOC(=O)c1cc(C(=O)c2ccccc2)n2nc(-c3ccc(Cl)cc3)ccc12,18.1 µM (inactive),–,–,–,–
[N-]=[N+]=NC(c1cn(C2CC(O)C(CO)O2)c(=O)[nH]c1=O)C(Br)I (stereo not given),–,> 100 µM (inactive),> 100 µM (inactive),> 100 µM (inactive),GI50 [3]: > 100 µM (inactive); GI50 [9]: > 100 µM (inactive)
C#C[C@]1(O)CC[C@H]2[C@@H]3CCC4=C/C(=N\OCCN5CCCCC5)CC[C@]4(C)[C@H]3CC[C@@]21C,5.89 µM (inactive),–,–,–,–
C[C@]12CCC3c4ccc(OC(=O)c5ccccc5)cc4CC[C@H]3C1CC[C@@H]2OC(=O)C12OC1CCC2=O (stereo not given in full),–,2.6 µM (inactive),5.01 µM (inactive),6.34 µM (inactive),GI50 [3]: 5.89 µM (inactive); GI50 [6]: 5.82 µM (inactive); GI50 [8]: 5.71 µM (inactive); GI50 [9]: 2.47 µM (inactive)
CCCCCCCCCCCc1noc2c1C(=O)C(O)CC2 (stereo not given),–,–,16.8 µM (inactive),24.4 µM (inactive),GI50 [2]: 17.6 µM (inactive); GI50 [3]: 17.2 µM (inactive); GI50 [6]: 13.6 µM (inactive)
CC(C)CNC(=O)Cn1c2c(c3ccccc31)CCCC2,> 100 µM (inactive),–,–,–,–
O=C(N/C(=C\c1ccccc1)C1Nc2ccccc2C(=O)O1)c1ccccc1 (stereo not given),21.5 µM (inactive),–,–,–,–
CCOC(=O)CSc1cc[nH]c(=O)n1,–,> 100 µM (inactive),> 100 µM (inactive),> 100 µM (inactive),GI50 [3]: > 100 µM (inactive); GI50 [6]: 75 µM (inactive)
Cc1c[n+]2c3ccccc3c3ccccc3c2s1.[O-][Cl+3]([O-])([O-])[O-],–,2.61 µM (inactive),5.3 µM (inactive),0.721 µM (active),GI50 [3]: 1.33 µM (inactive); GI50 [6]: 3.19 µM (inactive); GI50 [8]: 40.2 µM (inactive); GI50 [9]: 12 µM (inactive)
Cn1nc(-c2ccc(S(=O)(=O)N/C(=N/c3ccc(Cl)cc3)NN)s2)cc1C(F)(F)F,17.8 µM (inactive),–,–,–,–
O=C(OCCN=c1c2ccccc2ccc2ccccc12)c1cc([N+](=O)[O-])cc([N+](=O)[O-])c1,25.8 µM (inactive),–,–,–,–
Cc1cccc(NC(=O)/C=C/c2ccc(N(CCC#N)CCC#N)cc2C)c1,–,49.9 µM (inactive),> 100 µM (inactive),–,GI50 [2]: > 100 µM (inactive); GI50 [3]: > 100 µM (inactive); GI50 [6]: > 100 µM (inactive); GI50 [9]: > 100 µM (inactive)
COc1ccc(C2NC(N)=C(C#N)C3=C2C(C)CCC3)cc1OC (stereo not given),68.2 µM (inactive),–,–,–,–
O=S(=O)(O)c1cc(S(=O)(=O)O)c2c(/N=N/c3ccccc3)c(O)ccc2c1,> 100 µM (inactive),–,–,–,–
C=C(C)C(O)C(O)C[C@@H](C)C1CC[C@]23C[C@]12CCC1[C@@]2(C)CCC(OC(C)=O)C(C)(C)C2CC(OC2OC(CO)C(O)C(O)C2O)[C@]13C (stereo not given in full),14.5 µM (inactive),–,–,–,–
CC1CC(=O)C2CC(CO)=CCCC2C1(C)CC/C(=C/CO)CO (stereo not given),–,> 100 µM (inactive),> 100 µM (inactive),> 100 µM (inactive),GI50 [8]: > 100 µM (inactive); GI50 [9]: > 100 µM (inactive)
OC1(c2ccc(Cl)cc2)c2c(ccc3c2OCO3)C2=NCCN21 (stereo not given),32.3 µM (inactive),–,–,–,–
CCOC(=O)CCC(NC(=O)OCc1ccccc1)C(=O)NC(CCC(=O)OCC)C(=O)NN (stereo not given) (Cbz-Glu(OEt)-Glu(OEt)-NHNH2; configuration not given here),> 100 µM (inactive),–,–,–,–
COc1ccc2c(=O)c(C)c(-c3ccccc3)oc2c1CN(C)C [DIMEFLINE],–,–,> 100 µM (inactive),> 100 µM (inactive),GI50 [3]: 97.7 µM (inactive); GI50 [6]: 69.3 µM (inactive); GI50 [8]: > 100 µM (inactive); GI50 [9]: > 100 µM (inactive)
C=C1C[C@]23C[C@@]1(O)CC[C@H]2[C@@]12C=C[C@H](O)[C@@](C)(C(=O)O1)[C@H]2[C@@H]3C(=O)O [GIBBERELLIN A3],–,> 100 µM (inactive),> 100 µM (inactive),> 100 µM (inactive),GI50 [3]: > 100 µM (inactive); GI50 [6]: > 100 µM (inactive); GI50 [9]: > 100 µM (inactive)

# — ChEMBL document CHEMBL1201862, “PubChem BioAssay data set” (2004)
